Legend:
[1] = system: NL4-3∆Env-NanoLuc/SARS-CoV-2 mutant pseudovirus D614G/P681R/D950N; type: cell-based
[2] = system: NL4-3∆Env-NanoLuc/SARS-CoV-2 mutant pseudovirus N501Y/∆69–70; type: cell-based
[3] = system: NL4-3∆Env-NanoLuc/SARS-CoV-2 mutant pseudovirus E484K; type: cell-based
[4] = system: NL4-3∆Env-NanoLuc/SARS-CoV-2 mutant pseudovirus D950N; type: cell-based
[5] = system: NL4-3∆Env-NanoLuc/SARS-CoV-2 mutant pseudovirus E484K/D614G; type: cell-based
[6] = system: NL4-3∆Env-NanoLuc/SARS-CoV-2 mutant pseudovirus E484K/N501Y/D614G; type: cell-based
[7] = system: NL4-3∆Env-NanoLuc/SARS-CoV-2 mutant pseudovirus D614G/P681R; type: cell-based
[8] = system: NL4-3∆Env-NanoLuc/SARS-CoV-2 mutant pseudovirus D614G/D950N; type: cell-based
[9] = system: NL4-3∆Env-NanoLuc/SARS-CoV-2 mutant pseudovirus P681H; type: cell-based
[10] = system: NL4-3∆Env-NanoLuc/SARS-CoV-2 mutant pseudovirus N501Y; type: cell-based
[11] = system: NL4-3∆Env-NanoLuc/SARS-CoV-2 mutant pseudovirus N501Y/D614G; type: cell-based
[12] = system: NL4-3∆Env-NanoLuc/SARS-CoV-2 mutant pseudovirus E484K/N501Y; type: cell-based
[13] = system: NL4-3∆Env-NanoLuc/SARS-CoV-2 mutant pseudovirus ∆69–70; type: cell-based
[14] = system: NL4-3∆Env-NanoLuc/SARS-CoV-2 mutant pseudovirus D614G; type: cell-based
[15] = system: NL4-3∆Env-NanoLuc/SARS-CoV-2 mutant pseudovirus N501Y/∆69–70/P681H; type: cell-based
[16] = target: SARS-CoV-2 spike (active trimer) His-tag (Severe acute respiratory syndrome coronavirus 2, UniProt P0DTC2, K986P/R682S/R685S/V987P); type: binding

| Compound | IC50 [1] [nM] | IC50 [2] [nM] | IC50 [3] [nM] | IC50 [4] [nM] | IC50 [5] [nM] | IC50 [6] [nM] | IC50 [7] [nM] | IC50 [8] [nM] | IC50 [9] [nM] | IC50 [10] [nM] | IC50 [11] [nM] | IC50 [12] [nM] | IC50 [13] [nM] | IC50 [14] [nM] | IC50 [15] [nM] | ka [16] [M⁻¹ s⁻¹] | kd [16] [s⁻¹] |
| --- | --- | --- | --- | --- | --- | --- | --- | --- | --- | --- | --- | --- | --- | --- | --- | --- | --- |
| O=C(O)c1cc(-c2ccc(/C=C3\SC(=S)N(CCc4ccccc4)C3=O)o2)ccc1Cl [NBCoV1] | 58 ± 7 | 46 ± 0.5 | 42 ± 0.7 | 47.7 ± 15 | 33 ± 0.5 | 45 ± 2 | 49 ± 13 | 33 ± 10 | 35 ± 0.5 | 52.5 ± 0.2 | 57 ± 2 | 32 ± 0.5 | 48 ± 3 | 56 ± 0.6 | 57 ± 0.5 | 1040 | 0.00162 |
| O=C(O)c1cccc(-c2ccc(/C=C3\SC(=S)N(CCc4ccccc4)C3=O)o2)c1 [NBCoV2] | 53 ± 12 | 66 ± 1 | 45 ± 0.2 | 88.7 ± 6 | 35 ± 0.2 | 43 ± 0.5 | 65 ± 18 | 26 ± 2 | 51 ± 0.3 | 49 ± 0.5 | 59 ± 13 | 36 ± 0.4 | 55 ± 0.5 | 61 ± 0.3 | 79 ± 14 | 872 | 0.00468 |
| O=C(O)c1cc(-c2ccc(/C=C3\SC(=S)N(CCc4ccccc4)C3=O)o2)ccc1F [NBCoV3] | – | 94 ± 16 | 80 ± 10.6 | – | 44 ± 0.8 | 101 ± 2 | – | – | 55 ± 0.3 | 44.5 ± 0.5 | 104 ± 1 | 42 ± 1 | 69 ± 7 | 145 ± 28 | 232 ± 17 | – | – |
| Cc1ccc(-c2ccc(/C=C3\SC(=S)N(CCc4ccccc4)C3=O)o2)cc1C(=O)O [NBCoV4] | 239 ± 7 | 53 ± 11 | 45 ± 0.4 | 207 ± 29 | 44 ± 3 | 43 ± 2.5 | 148 ± 30 | 77.5 ± 16.5 | 44 ± 0.4 | 51 ± 0.4 | 77 ± 29 | 51 ± 5 | 53 ± 0.5 | 58 ± 0.4 | 158 ± 31 | – | – |
| Cc1c(C(=O)O)cccc1-c1ccc(/C=C2\SC(=S)N(CCc3ccccc3)C2=O)o1 [NBCoV5] | > 2000 | > 2000 | > 2000 | > 2000 | 1850 ± 124 | > 2000 | > 2000 | > 2000 | 1720 ± 215 | > 2000 | > 2000 | > 2000 | > 2000 | 1730 ± 62.5 | > 2000 | – | – |

Source: paper PMC8780828 (Viruses, 2021)
